Test results from patent publication US20190111168A1, “PHOTOSENSITIZER DISPERSION, AND USE THEREOF” (Universität Regensburg, priority 2016, published 2019).

Tests used:
[1] = system: Staphylococcus aureus (S. aureus; ATCC Number: 25923); experiment: phototoxicity measurements (MTT test; colony forming units by Miles and Misra); type: cell-based; conditions: for effectiveness against S. aureus in a microemulsion compared with water: microemulsion versus water; for reduction in the quantity of S. aureus: irradiated
Text: (§1) In order to investigate the phototoxicity of the microemulsions in accordance with the invention, a MTT test was used. Assaying cell vitality using a MTT test is based on the reduction of the yellow, water-soluble dye 3-(4,5-dimethylthiazol-2-yl)-2,5-diphenyltetrazolium bromide (MIT, Sigma-Aldrich Chemie GmbH, Munich, DE) into a blue-violet […] (formazan) which is insoluble in water. MTT is a dye which can pass through membranes, which is metabolized by mitochondrial dehydrogenases in living cells, which in the end leads to the formation of formazan crystals.
(§2) Formazan crystals can no longer pass through the membranes and accumulate in proliferating undamaged cells. After cell lysis and dissolving the crystals, the dye is then quantified by colorimetric measurement at 550 nm in a multi-well spectrophotometer (ELISA reader). The quantity of formazan formed is determined as the optical density (OD). The measured quantity of formazan is directly proportional to the number of proliferating cells, so that this test is suitable for the measurement of the phototoxicity of the microemulsions used. The measured OD can be assigned a cell count by means of a previously determined calibration curve.
(§3) The concentration of the respective photosensitizers TMPyP, SA-PN-01a, SA-PN-02a, SA-PN-24d, FL-AS-H-1a or FL-AS-H-2 in the microemulsions E1 to E4 was 0 μM, 10 μM, 25 μM, 50 μM, 100 μM, 250 μM and 500 μM.
(§4) Furthermore, the respective microemulsions E1 to E4 without photosensitizer were used as a control.
(§5) The phototoxicity measurements were carried out on Escherichia coli (E. coli; ATCC Number: 25922) and Staphylococcus aureus (S. aureus; ATCC Number: 25923), as described by Mosmann (1983). (Mosmann T.: Rapid colorimetric assay for cellular growth and survival: application to proliferation and cytotoxicity assays: J. Immunol. methods. 1983 (65); pages 55-63).
(§6) 25 μL of a suspension of the bacteria used were grown overnight in Müller-Hinton liquid medium (Merck KGaA, Darmstadt, Germany) with an optical density of 0.6 at 600 nm were incubated with 25 μL of the test solution at room temperature for 10 seconds in darkness in a 96-well microtitre plate (Cellstar, Greiner Bio-One, Frickenhausen, Germany).
(§7) Next, the microtitre plate was irradiated for 40 s. For irradiation, the light source Blue V from Waldmann (Villingen-Schwenningen, Germany) was used, which emits light at 380 to 480 nm (emission maximum at approximately 420 nm). The applied power was 20 mW/cm^2.
(§8) For each experiment, three controls were carried out at the same time in order to exclude side effects of the irradiation/photosensitizer (PS) on survival of the bacteria: (i) no PS, only light (=light control), (ii) no light, only PS (=dark control), and (iii) neither light nor PS (=reference control).
(§9) After irradiation had been completed, 75 μL of a 25% by weight SDS solution was added to each well of the microtitre plate and the bacterial cells were lysed overnight at 37° C. in an incubator.
(§10) Finally, the optical density (OD) was determined with the aid of a microtitre plate photometer (model EAR 400 AT, SLT Laborinstruments Austria, Salzburg, AT).
(§11) After lysis of the cells and dissolution of the crystals, the dye could then be quantified in a multi-well spectrophotometer (ELISA-Reader) by colorimetric measurement at 550 nm.
(§12) The determination of the colony forming units was carried out in accordance with the method published by Miles and Misra (Miles, AA; Misra, SS, Irwin, JO (1938 November). “The estimation of the bactericidal power of the blood” The Journal of hygiene 38 (6): 732-49). In this regard, serial dilutions from 10^−2 to 10^−9 of the corresponding bacterial suspension were produced. In each case, 3×20 μL of the corresponding bacterial dilutions were then dropped onto Müller-Hinton plates and incubated at 37° C. for 24 h. Next, the number of surviving colony forming units (CFU) was determined. All of the experiments were carried out three times.

[2] = system: Escherichia coli (E. coli; ATCC Number: 25922); experiment: as above; type: cell-based; conditions: for effectiveness against E. coli in a microemulsion compared with water: microemulsion versus water; for reduction in the quantity of E. coli: irradiated
Text: as §1, §2, §3, §4, §5, §6, §7, §8, §9, §10, §11, §12

[3] = time-resolved singlet oxygen luminescence measurements in gels; type: physicochemical; conditions: final concentration 10 μM
[4] = time-resolved singlet oxygen luminescence measurements in water and microemulsions; type: physicochemical; parameters: Integral: unit not given here; conditions: for production of singlet oxygen following irradiation with electromagnetic radiation: 5 μM in water or microemulsions; for Integral: singlet oxygen luminescence; for Decay period / Formation time / Relative yield with respect to H2O: singlet oxygen; for Relative yield with respect to H2O: ratio of the integrals; for formation of singlet oxygen in the microemulsions used, times higher than in water: microemulsions versus water
Procedure: The formation of singlet oxygen following irradiation of a photosensitizer-containing microemulsion was determined using time-resolved singlet oxygen luminescence measurements.
For the relevant measurements, 5 μM of the respective photosensitizers used were dissolved in water or in the emulsions E1 to E4.
The time-resolved singlet oxygen luminescence measurements were carried out in accordance with the methods described in S. Y. Egorov et al., 1999.
A tuneable laser system was used to produce the singlet oxygen (model: NT242-SH/SFG, serial number: PGD048) from EKSPLA (Vilnius, […]). A portion of the monochromatic laser beam produced was directed onto a photodiode which acted as a trigger signal for the time-correlated single photon measurement.
The other part of the laser beam was directed onto a 1 cm thick quartz cell (SUPRASIL, Type 101-QS, Hellma GmbH & Co. KG, Mühlheim, DE), in which the solution to be tested had been disposed.
The formation of singlet oxygen was detected by direct detection of the time- and spectrally-resolved singlet oxygen luminescence.
Singlet oxygen luminescence was carried out by means of a nitrogen-cooled photomultiplier (model R5509-42, Hamamatsu Photonics, Hamamatsu, Japan) and a multiscaler (7886S, FAST Corn Tec GmbH, Oberhaching, Germany).
The singlet oxygen luminescence was detected at a wavelength in the range 1200 nm to 1400 nm using interference filters which were disposed in front of the photomultiplier.
The quantum yield was determined in accordance with the method described in Baier J. et al. (“Singlet Oxygen Generation by UVA Light Exposure of Endogenous Photosensitizers”, Biophys. J. 91(4), 2006, pages 1452 to 1459; doi. 10.1529/biophysj.106.082388).
The relative yield of singlet oxygen for each photosensitizer with respect to the quantity of singlet oxygen formed in water was calculated from the ratio of the integrals.

[5] = absorption spectrum following irradiation with varying doses of light (degradation of photosensitizer); type: physicochemical; conditions: light dose 5.5 J to 990 J
Procedure: The absorption of the FL-AS-H-1a photosensitizer used in the microemulsions E5 and E6 was determined by recording an absorption spectrum for a wavelength range of 250 nm to 600 nm, as described in Example 1. To this end, the FL-AS-H-2 photosensitizer was dissolved in a concentration of 10 μM in the microemulsions E5 and E6, as well as in water. Furthermore, an absorption spectrum of FL-AS-H-2 in microemulsions E5 and E6 as well as in water was measured following irradiation with varying doses of light. For the irradiation, the light source Blue V from Waldmann, which emits light at 380 to 480 nm (emission maximum at approximately 420 nm) was used. The applied light dose was from 5.5 J to 990 J.

[6] = photosensitizer 5 μM in microemulsion E1
[7] = photosensitizer 5 μM in microemulsion E2
[8] = photosensitizer 5 μM in microemulsion E1 (DMS, SDS/1-pentanol (1:2); water)
[9] = photosensitizer 5 μM in microemulsion E2 (DMS, SDS/1,2-pentanediol (1:2); water)
[10] = 10 μM to 100 μM, both in water and in microemulsions E1 to E4, Blue V 40 s, 20 mW/cm^2
[11] = more than 100 μM in water (concentrated aqueous solutions)
[12] = more than 100 μM to 500 μM in microemulsions
[13] = 10 μM in one of the microemulsions E1 to E4
[14] = in one of the microemulsions E1 to E4, from a concentration of 25 μM

Compound: CN(CC1=Cc2cccc3cccc(c23)C1=O)C(=N)N.Cl [SA-PN-24d, 1-((1-oxo-1H-phenalen-2-yl)methyl)-1-methylguanidinium chloride]
- effectiveness against S. aureus in a microemulsion compared with water [1]: more effective
- effectiveness against E. coli in a microemulsion compared with water [2]: more effective

Compound: C[n+]1ccc(-c2c3nc(c(-c4cc[n+](C)cc4)c4ccc([nH]4)c(-c4cc[n+](C)cc4)c4nc(c(-c5cc[n+](C)cc5)c5ccc2[nH]5)C=C4)C=C3)cc1 [TMPyP, 5,10,15,20-tetrakis(1-methyl-4-pyridyl)-porphyrin-tetra-(p-toluenesulphonate), reference compound]
- decay time for the singlet oxygen signal (tD) ([3]; in gel G3): 7.4 μs
- rise time for the singlet oxygen signal (tR) ([3]; in gel G3): 2.7 μs
- formation of singlet oxygen following irradiation ([3]; in gels G1, G2 and G3): could be detected
- production of singlet oxygen following irradiation with electromagnetic radiation [4]: produced singlet oxygen
- Integral ([4]; photosensitizer 5 μM in H2O): 985
- Integral [4, 6]: 2874
- Integral [4, 7]: 1955
- Decay period ([4]; photosensitizer 5 μM in H2O): 3.8 μs
- Formation time ([4]; photosensitizer 5 μM in H2O): 1.9 μs
- Decay period [4, 6]: 8.9 μs
- Formation time [4, 8]: 1.7 μs
- Decay period [4, 7]: 7.2 μs
- Formation time [4, 9]: 2.3 μs
- Relative yield with respect to H2O ([4]; 5 μM in microemulsion E1): 2.92
- Relative yield with respect to H2O ([4]; 5 μM in microemulsion E2): 1.98
- destruction of S. aureus by the singlet oxygen formed by the irradiation [1, 10]: destroyed
- reduction in the quantity of S. aureus [1, 11]: 2 log units
- reduction in the quantity of S. aureus [1, 12]: 5 log10 units
- destruction of E. coli by the singlet oxygen formed by the irradiation [2, 10]: destroyed
- reduction in the quantity of E. coli [2, 11]: 2 log units
- reduction in the quantity of E. coli [2, 12]: 5 log10 units

Compound: Cc1cc2nc3c(=O)[nH]c(=O)nc-3n(CCN)c2cc1C.Cl [FL-AS-H-1a, 10-(2-aminoeth-1-yl)-7,8-dimethyl-[3H,10H]-benzo[g]pteridine-2,4-dione hydrochloride]
- production of singlet oxygen following irradiation with electromagnetic radiation [4]: produced singlet oxygen
- formation of singlet oxygen in the microemulsions used, times higher than in water [4]: 5 times
- Integral ([4]; photosensitizer 5 μM in H2O): 366
- Integral [4, 6]: 1752
- Integral [4, 7]: 1695
- Decay period ([4]; photosensitizer 5 μM in H2O): 3.6 μs
- Formation time ([4]; photosensitizer 5 μM in H2O): 3.6 μs
- Decay period [4, 6]: 8.6 μs
- Formation time [4, 8]: 3.0 μs
- Decay period [4, 7]: 6.7 μs
- Formation time [4, 9]: 4.0 μs
- Relative yield with respect to H2O ([4]; 5 μM in microemulsion E1): 4.79
- Relative yield with respect to H2O ([4]; 5 μM in microemulsion E2): 4.63
- reduction in the quantity of S. aureus following irradiation [1, 13]: approximately 2 log10 units
- reduction in the quantity of E. coli following irradiation [2, 13]: approximately 2 log10 units

Compound: C[N+](C)(C)CC1=Cc2cccc3cccc(c23)C1=O.[Cl-] [SA-PN-02a, N,N,N-trimethyl-1-(1-oxo-1H-phenalen-2-yl)methanaminium chloride]
- effectiveness against S. aureus in a microemulsion compared with water [1]: more effective
- effectiveness against E. coli in a microemulsion compared with water [2]: more effective

Compound: O=C1C(C[n+]2ccccc2)=Cc2cccc3cccc1c23.[Cl-] [SA-PN-01a]
- production of singlet oxygen following irradiation with electromagnetic radiation [4]: produced singlet oxygen
- formation of singlet oxygen in the microemulsions used, times higher than in water [4]: 7 times
- Integral ([4]; photosensitizer 5 μM in H2O): 571
- Integral [4, 6]: 4413
- Integral [4, 7]: 3933
- Decay period ([4]; photosensitizer 5 μM in H2O): 3.2 μs
- Formation time ([4]; photosensitizer 5 μM in H2O): 2.5 μs
- Decay period [4, 6]: 9.2 μs
- Formation time [4, 8]: 1.0 μs
- Decay period [4, 7]: 7.4 μs
- Formation time [4, 9]: 1.6 μs
- Relative yield with respect to H2O ([4]; 5 μM in microemulsion E1): 7.73
- Relative yield with respect to H2O ([4]; 5 μM in microemulsion E2): 6.89
- reduction in the quantity of S. aureus following irradiation [1, 13]: 3 log10 units
- reduction in the quantity of S. aureus following irradiation [1, 14]: more than 6 log10 units
- effectiveness against S. aureus in a microemulsion compared with water [1]: more effective
- reduction in the quantity of E. coli following irradiation [2, 13]: 3 log10 units
- reduction in the quantity of E. coli following irradiation [2, 14]: more than 6 log10 units
- effectiveness against E. coli in a microemulsion compared with water [2]: more effective

Compound: Cc1cc2nc3c(=O)n(CCN)c(=O)nc-3n(CCN)c2cc1C.Cl.Cl [FL-AS-H-2, 3,10-bis(2′-aminoeth-1′-yl)-7,8-dimethylbenzo[g]pteridine-2,4-dion-dihydrochloride]
- degradation of the photosensitizer following irradiation ([5]; 10 μM in water, microemulsions E5 and E6, Blue V 380 to 480 nm): degraded both in water as well as in the microemulsions E5 and E6
- rate of degradation in water compared with microemulsion E5 or E6 ([5]; 10 μM, Blue V): significantly faster
